Among the data in PubChem BioAssay (NCI) are GI50 and TGI values, retold here.

Test systems include ACHN renal; MOLT-4 leukemia; SF-295 CNS; SK-MEL-2 melanoma; MCF7 breast; HT29 colon; COLO 205 colon; OVCAR-5 ovarian; UACC-257 melanoma; CAKI-1 renal.
Holding throughout (experiment): NCI anticancer screen, dose series, 48 h

Each structure is given as a SMILES string.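 Interpolation was linear, between the two tested concentrations surrounding the appropriate level; five concentrations were tested over 48 hours in 96-well plates. GI50: concentration for 50% inhibition of growth. TGI denotes the concentration required for complete inhibition of growth.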

With `COc1ccc(C[n+]2c3ccccc3n3c4ccc(N)cc4ccc32)c(OC)c1OC`, the GI50 in the assay on ACHN renal is 36.2 µM; with MOLT-4 leukemia it was 3.14 µM; in the assay with SF-295 CNS, 4.22 µM; in the assay on SK-MEL-2 melanoma, 3.78 µM; with MCF7 breast, 1.11 µM; in the assay with HT29 colon, 4.63 µM. The GI50 was 1.9 µM in the assay with COLO 205 colon, 12.1 µM in the assay with OVCAR-5 ovarian and 2.56 µM in the assay with UACC-257 melanoma. The TGI in the assay with ACHN renal was over 100 µM; with MOLT-4 leukemia, 35.2 µM; in the assay with SF-295 CNS it was 38.1 µM; in the assay with SK-MEL-2 melanoma, 14.8 µM; in the assay with MCF7 breast, 26.1 µM; with HT29 colon, 33.2 µM. The TGI was determined as 5.65 µM in the assay on COLO 205 colon, 78.5 µM with OVCAR-5 ovarian and 8.02 µM with UACC-257 melanoma.
For `CN(CCC#N)c1ccc(/C=C(\C#N)c2cccc(C(F)(F)F)c2)cc1`, the GI50 was 4.13 µM in the assay with ACHN renal; 3.06 µM with MOLT-4 leukemia; 4.24 µM with CAKI-1 renal; 3.87 µM in the assay on SF-295 CNS; 2.57 µM in the assay with SK-MEL-2 melanoma; 0.544 µM in the assay on MCF7 breast. Besides, the GI50 in the assay on HT29 colon was 2.58 µM; in the assay with COLO 205 colon it was 3.81 µM; with OVCAR-5 ovarian it was 6.73 µM. For the same compound, the TGI is over 100 µM with ACHN renal; over 100 µM in the assay on MOLT-4 leukemia; over 100 µM in the assay with CAKI-1 renal; over 100 µM with SF-295 CNS; 8.11 µM in the assay on SK-MEL-2 melanoma; over 100 µM in the assay on MCF7 breast. Further, the TGI in the assay with HT29 colon is 11.3 µM; in the assay with COLO 205 colon, over 100 µM; in the assay on OVCAR-5 ovarian, over 100 µM.
As for `COc1cc2ccccc2c2cc([N+](=O)[O-])oc12`, the TGI was 3.95 µM with MOLT-4 leukemia; over 100 µM with CAKI-1 renal; 15.6 µM with SF-295 CNS; 0.452 µM in the assay on SK-MEL-2 melanoma; 15.8 µM with MCF7 breast; 21.9 µM in the assay with HT29 colon. Moreover, the TGI in the assay on COLO 205 colon is 2.36 µM; in the assay with OVCAR-5 ovarian, 9.93 µM; in the assay on UACC-257 melanoma it was 0.443 µM.
For the compound `CC(=O)[CH-]C(=O)c1ccccc1.CC(=O)[CH-]C(=O)c1ccccc1.COc1cccc([O-])c1[O-].[Ti+4]`, the GI50 in the assay with ACHN renal is 94.9 µM; in the assay on MOLT-4 leukemia it was 33.1 µM; with CAKI-1 renal it was over 100 µM; in the assay with SF-295 CNS, 70.4 µM; in the assay with SK-MEL-2 melanoma, 24.8 µM; in the assay on HT29 colon it was 64.5 µM. For the same compound, the GI50 was 37.9 µM in the assay on COLO 205 colon, over 100 µM with OVCAR-5 ovarian and over 100 µM with UACC-257 melanoma. In addition, the TGI in the assay with ACHN renal is over 100 µM; in the assay with MOLT-4 leukemia, over 100 µM; with CAKI-1 renal it was over 100 µM; with SF-295 CNS, over 100 µM; in the assay with SK-MEL-2 melanoma, 62.4 µM; in the assay with HT29 colon, over 100 µM. The TGI in the assay on COLO 205 colon, in the assay with OVCAR-5 ovarian and with UACC-257 melanoma was over 100 µM each time.
Turning to `COc1ccc2c(c1)[C@]1(C[C@H]1c1ccc3c(/C=C/c4ccc(CN5C[C@@H](C)O[C@@H](C)C5)cc4)n[nH]c3c1)C(=O)N2`, the GI50 is 2.86 µM with ACHN renal; 2.23 µM in the assay with MOLT-4 leukemia; 1.79 µM with SF-295 CNS; 8.28 µM in the assay on SK-MEL-2 melanoma; 1.59 µM in the assay on MCF7 breast; 2.83 µM with HT29 colon. Besides, the GI50 is under 0.0209 µM in the assay on COLO 205 colon, 8.26 µM in the assay on OVCAR-5 ovarian and 6.8 µM with UACC-257 melanoma. Moreover, the TGI in the assay on ACHN renal was over 100 µM; in the assay with MOLT-4 leukemia, over 100 µM; in the assay on SF-295 CNS it was over 100 µM; with SK-MEL-2 melanoma, over 100 µM; in the assay with MCF7 breast, over 75.4 µM; in the assay with HT29 colon, 11.6 µM. The values for the TGI with COLO 205 colon, with OVCAR-5 ovarian and in the assay with UACC-257 melanoma were 15.1 µM, over 100 µM and over 60.5 µM, respectively.
Turning to `Cc1nc2ccccc2c(=O)n1/N=C(\N=Nc1cc(Cl)ccc1Cl)c1cccc(-c2ccco2)c1`, the TGI with ACHN renal, in the assay on MOLT-4 leukemia, in the assay with CAKI-1 renal, in the assay with SF-295 CNS, in the assay on SK-MEL-2 melanoma and in the assay on HT29 colon was over 100 µM each time. The TGI with COLO 205 colon, in the assay with OVCAR-5 ovarian and with UACC-257 melanoma was over 100 µM each time.
In the case of `CC1(C)CCC[C@@]2(C)C1C[C@H](O)[C@@]1(C)O[C@@](C)([C@H](O)CO)CCC21` (stereo not given in full), the TGI in the assay on ACHN renal was 74.9 µM; with MOLT-4 leukemia it was 62 µM; in the assay on CAKI-1 renal it was over 100 µM; in the assay on SF-295 CNS, over 100 µM; with SK-MEL-2 melanoma it was 60 µM; in the assay with HT29 colon it was 86 µM. Further, the TGI in the assay with COLO 205 colon was 56.5 µM; in the assay on OVCAR-5 ovarian it was over 100 µM; with UACC-257 melanoma, over 100 µM.
In the case of `Cc1cc2cccnc2c2ncccc12`, the GI50 in the assay on ACHN renal is 0.46 µM; in the assay on CAKI-1 renal, 0.244 µM; in the assay with SF-295 CNS it was 0.555 µM; in the assay on SK-MEL-2 melanoma it was 2.38 µM; with MCF7 breast, 2.62 µM; with HT29 colon, 1.69 µM. The GI50 in the assay on COLO 205 colon was 3.4 µM; in the assay on OVCAR-5 ovarian it was 1.35 µM; in the assay with UACC-257 melanoma, 2.14 µM. Moreover, the TGI is 7.51 µM in the assay with ACHN renal; 0.758 µM in the assay with CAKI-1 renal; 4.57 µM in the assay on SF-295 CNS; 31.9 µM in the assay on SK-MEL-2 melanoma; over 100 µM in the assay on MCF7 breast; 16 µM with HT29 colon. Further, the TGI in the assay with COLO 205 colon turned out to be 11.5 µM; in the assay with OVCAR-5 ovarian it was 42.1 µM; in the assay with UACC-257 melanoma, 6.94 µM.
On to `Cc1ccc(C2CC(c3ccc([N+](=O)[O-])cc3)=Nc3ccccc3S2)cc1` (stereo not given), for which the TGI is over 100 µM in the assay on ACHN renal; 69 µM with MOLT-4 leukemia; over 100 µM in the assay with CAKI-1 renal; over 100 µM in the assay with SF-295 CNS; 95 µM in the assay with SK-MEL-2 melanoma; 95.5 µM in the assay on HT29 colon. Further, the TGI in the assay with COLO 205 colon, in the assay with OVCAR-5 ovarian and with UACC-257 melanoma was over 100 µM throughout.
Turning to `O=S1CSCS1` (stereo not given), the TGI with ACHN renal, with MOLT-4 leukemia, in the assay on CAKI-1 renal, in the assay with SF-295 CNS, in the assay on SK-MEL-2 melanoma and with HT29 colon was over 100 µM each time. Further, the TGI in the assay on COLO 205 colon, in the assay with OVCAR-5 ovarian and in the assay on UACC-257 melanoma was over 100 µM throughout.
